Data from patent publication US20060068503A1, “Solid support membranes for ion channel arrays and sensors: application ro rapid screening of pharmacological compounds” (priority 2004, published 2006).

Assays:
[1] = biological target: T1, Kv1.5 K+ channels reconstituted on the SSM (Homo sapiens, UniProt P22460); test: Kv1.5 K+ channel current on solid supported membrane (SSM); assay type: biochemical; settings: for IC50: SSM-reconstituted channels, -80 mV, n=3, read-out: half-maximal inhibition of Kv1.5 K+ channel current, IC50
T1 construct: expressed in transfected cells; host or cells: Ltk- cells (mouse fibroblasts), stably transfected, expression induced with 2 uM dexamethasone
T1 sequence (P22460 whole entry): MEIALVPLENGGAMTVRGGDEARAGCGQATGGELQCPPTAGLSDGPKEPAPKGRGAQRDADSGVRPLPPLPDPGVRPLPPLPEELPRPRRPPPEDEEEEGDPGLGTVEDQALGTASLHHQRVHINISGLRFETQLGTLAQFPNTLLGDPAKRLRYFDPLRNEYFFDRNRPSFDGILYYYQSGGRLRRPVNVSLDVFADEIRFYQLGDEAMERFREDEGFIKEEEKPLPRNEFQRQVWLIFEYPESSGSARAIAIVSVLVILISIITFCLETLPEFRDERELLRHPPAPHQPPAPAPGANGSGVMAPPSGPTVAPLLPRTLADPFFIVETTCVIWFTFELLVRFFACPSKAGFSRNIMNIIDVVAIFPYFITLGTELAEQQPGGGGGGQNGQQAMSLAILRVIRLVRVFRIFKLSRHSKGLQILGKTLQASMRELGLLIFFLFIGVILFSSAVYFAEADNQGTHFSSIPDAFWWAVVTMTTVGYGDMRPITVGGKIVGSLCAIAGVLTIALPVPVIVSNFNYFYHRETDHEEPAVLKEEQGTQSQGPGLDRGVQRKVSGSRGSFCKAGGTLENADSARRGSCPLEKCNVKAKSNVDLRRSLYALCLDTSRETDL
Experimental: An Ltk-cell line (mouse fibroblast cells) stably overexpressing Kv1.5 K+ channels under control of a dexamethasone promoter is used to prepare plasma membrane vesicles. Expression of Kv1.5 is induced in Ltk-cells by addition of dexamethasone to the medium. The dexamethasone-specific induction of channel expression is totally specific for Kv1.5 channels. Cells are grown in 2 μM dexamethasone for 24 hr prior to use. The cells are centrifuged for 5 min at 1000 rpm and resuspended in 1.0 ml of 20 mM HEPES (pH 7.5), 20 mM NaCl, 100 mM KCl, 1.0 mM EDTA, 0.02% NaN3, 1 mM PMSF, 10 μg/μl leupeptin, and 50 μg/μl aprotinin. After freeze-thawing twice, the membrane fragments/vesicles are collected following centrifugation at 12,000 g for 20 min at 4 °C. Membrane vesicles are also prepared from uninduced Ltk-cells (no dexamethasone incubation) transfected with Kv1.5 K+ channel cDNA and from non-transfected Lkt-cells.
Glass slides are first plated with chromium (5 nm), and then gold (150 nm). The slide is then immersed in ethanol containing 1% octadecanethiol (w/w) for 48 hr to attach alkyl thiol groups. After cleaning the gold plated slide with anhydrous isopropanol, epoxy resin is applied to the surface of the thiol-treated gold. Defects in the epoxy resin coating are used as the experimental chamber after coating the device with a lipid monolayer. […]
Membrane vesicles containing Kv1.5 K+ channels are added to the lipid coated wells containing 125 mM KCl/10 mM K-HEPES pH 7.4. Currents are measured with an HS-2A headstage and Gene Clamp 500 amplifier (Axon Instruments). […] Voltages ranging from −80 mV to +70 mV are applied in 10 mV increments for 200 msec, and electrical currents are recorded. […] Cation selectivity is measured by removing K+ from the medium and replacing it with Na+. Currents are first measured with K+ present. SSMs are then washed with K+-free, Na+-containing medium and currents were measured with Na+ present. Currents with K+ present are re-measured. […]

[2] = biological target: T2, Kv1.5 K+ channel (Homo sapiens, UniProt P22460); test: Whole cell patch clamp of dexamethasone-induced Kv1.5-transfected Ltk-cells; assay type: cell-based; settings: Ltk-cells overexpressing Kv1.5, whole cell patch clamp
T2 construct: expressed in transfected cells; host or cells: Ltk- cells (mouse fibroblasts), stably transfected, expression induced with 2 uM dexamethasone
T2 sequence (P22460 whole entry): as above
Experimental: Whole-cell Kv1.5 current recordings are made at room temperature via the gigaseal patch clamp technique using an Axopatch-1D amplifier (Axon Instruments, Foster City, Calif.). Ltk-cells overexpressing Kv1.5 channels are cultured for 24-72 hr, induced to express Kv1.5 channels by 24 hr incubation with 2 μM dexamethasone prior to use for patch clamp studies. Small, spherical cells approximately 10 microns in diameter are used for all patch recordings. Electrodes are made from TW-150F glass capillary tubes (World Precision Instruments, New Haven Conn.) and had resistances of 1.5-3.0 megohms when filled with internal solution containing: 110 Mm KCl, 5 mM K2ATP, 5 mM K4BAPTA, 1 mM MgCl2 and 10 mM HEPES, adjusted to pH 7.2 with KOH. The external solution contained: 130 mM NaCl, 4 mM KCl, 1.8 mM CaCl2 1 mM MgCl2, 10 mM HEPES, 10 mM glucose, adjusted to pH 7.4 with NaOH. Series resistance is compensated following rupture of the seal. Currents are sampled at 1 KHZ and filtered at 500 Hz. Cells are pulsed to +60 mV every 5 sec from a holding potential of −70 mV in 20 mV increments. […] Whole cell patch data are analyzed using Clampfit 8.0 in pCLAMP software (Axon Instruments). IC50 values for compounds are determined by nonlinear regression analysis using GraphPad Prism software (San Diego, Calif.).

effect on current at varying holding potentials ([1]; 100 nM, holding potentials outside the range of ±20 mV)	IC50 [1] [nM]	IC50 [2] [nM]	Compound
current decreased	218	170	CCc1ccc(S(=O)(=O)N[C@H]2c3cc(NC(=O)c4cccc(OC)c4)ccc3C[C@@H]2O)cc1 [Compound A, N-[(2S,3S)-3-[[(4-ethylphenyl)sulfonyl]amino]-2,3-dihydro-2-hydroxy-1H-inden-5yl]-3-methoxybenzamide]
	265	137	COc1ccc(CCN2C(=O)CSC2c2ccc(C)c(C)c2)cc1 (centres unmarked) [Compound B, 2-(3,4-dimethyphenyl)-3-[2-(4-methoxyphenyl)ethyl]-thiazolidin-4-one]
